Where “and” joins values, the source holds several entries; their conditions need not be identical. Identical values can stand only once.
Legend:
garden snail H. aspersa [1] = assay: Spray trial with ocimene and bisabolol formulations (Example 8); type: in vivo; conditions: for Repellency Index: RI relative to water
Description: Example 7 was repeated wherein the lettuce leaves were sprayed with 5% trans-β-ocimene in Tween 20 and the anti-feedant properties tested on the garden snail H. aspersa.
5 and 10% Ocimene and Bisabolol (H. aspersa)

garden snail H. aspersa [2] = assay: as above; type: in vivo; conditions: 1% in aq. Tween 20 (1%)
D. reticulatum slugs [3] = assay: Leaf disc assay (no choice-feeding bioassay on lettuce leaf discs); type: in vivo; conditions: for amount of lettuce leaf consumed was reduced: solubilisation in aqueous tween 80 (0.5%)
Description: Adult D. reticulatum were collected from nearby fields and maintained in plastic trays lined with moist, unbleached, absorbent paper They were housed in the dark and at a constant temperature of 10°±1° C. Slugs were regularly fed on a mixture of iceberg lettuce and carrots. Slugs, with a weight 300-600 mg, were pre-starved for 24 hours and maintained at a constant temperature of 15°±1° C. prior to testing.
The technique described here is a no choice-feeding bioassay using circular discs prepared from lettuce leaves. Selected terpenes were tested against D. reticulatum slugs and evaluated for their repellent/antifeedant and molluscicidal properties.
Lettuce leaf discs (1.4 cm^2) were placed in petri dishes lined with water saturated filter paper ([…] diameter). A known concentration of terpene oil, solubilised in the appropriate media, was prepared and a fixed volume (50 μl) added by pipette, onto individual lettuce leaf discs. Any residual solvent was left to evaporate for a minimum time of 30 iminutes.
Slugs, previously starved for 24 hours, were introduced to the petri dishes and placed in an environmentally controlled chamber (15° C.: 12 hours day, 15° C.: 12 hours night) for 24 hours.
The amount of leaf disc damaged (eaten) was quantified by comparing digital photographs of treated leaf discs with untreated (control) leaf discs, using photographic computer software. The experiment was replicated 20 times for each terpene.
To compare the change in feeding behaviour for different treatments, the leaf damage data was corrected for the control, using the repellency index equation below. [formula]
The antifeedant effect of various media was determined by comparison to untreated leaf discs. A positive R I value indicates a reduction in feeding (antifeedant/repellent) whereas a negative value indicates an increase in feeding behaviour (phagostimulant). Corrections for mortality were done the Abbotts formula (Abbott, 1925). [formula] Bioassay Assay Results: Leaf Disc Assay

[4] = tested on: field slug, D. reticulatum; conditions: in vivo; cited from earlier work
eggs of D. reticulatum = conditions: applied at a rate of 4.6 kg/ha; cited from earlier work
[5] = tested on: Balanus amphitrite day 3 cyprids; assay: Barnacle settlement repeated, cyprids incubated in 10^−5-10^−9M; type: in vivo; conditions: after 24 hr
Description: The barnacle settlement experiments were repeated; however, this time 10 Balanus amphitrite day 3 cyprids were incubated in varying concentrations (10^−5-10^−9M) of trans-β-ocimene at 28° C. in dark conditions. Each concentration was replicated four times, with a control run. The number of cyprids that had settled, still active, floating on the surface meniscus or dead was counted after 24 and 48 hr incubations. Results are expressed as a % of the total cyprid number in each well minus floating cyprids, as these were unable to settle. Values are expressed as mean ±SEM. The amount of settlement at each concentration was compared to the control settlement using an unpaired t-test.

D. reticulatum = assay: Spray trial, lettuce leaves on peat soil (Example 7); type: in vivo, Deroceras reticulatum; conditions: 3% in water, 24 hours
Description: To evaluate the efficacy of trans-β-ocimene emulsions using peat substrates lettuce leaves were sprayed with 12 ml of an aqueous ocimene emulsion (3%). Once sprayed the leaves were placed in plastic trays containing peat soil and left for 30 minutes to remove the excess liquid drops. After this time period two adult slugs, previously starved for 24 hours, were added to each plastic tray and left for 24 hours.
A control (water) was treated similarly. Four replicates were prepared for each treatment.
Repellency indices were calculated as described for the leaf disc bioassay.

D. reticulatum slugs [6] = assay: Spray trial (controlled temperature units) monitored over 7 days (Example 9); type: in vivo; conditions: for % Leaf Damage: 5% oil emulsion spray; for % Mortality: 5% spray
Description: The same spray trial as in the previous examples was repeated and leaf damage monitored for 7 days.
Spray Trial (Controlled Temperature Units) Monitoring Leaf Damage Over 7 Days (D. reticulatum)
Spray Trial (Controlled Temperature Units) Monitoring Mortality Over 7 Days (D. reticitlatum)

[7] = tested on: cyprid larvae of the marine barnacle Balanus amphitrite; assay: Barnacle settlement in multi-welled plates, extract evaporated to dryness; type: in vivo; conditions: top two doses, 24 hrs
Description: The settlement of the barnacle Balanus Amphitrite was tested in multi-welled plates in the laboratory. Myrrh and scented Myrrh were extracted in ethanol and 2 ml aliquots from a range of concentrations (50% v/v to 1.5% v/v) were evaporated to dryness in each well of a multi welled plate. Ethanolic trans-β-Ocimene a component of scented Myrrh was also applied in the manner over a range of concentrations (50% v/v to 1.5-% v/v). After evaporation saltwater containing active cyprid larvae was introduced to each well and their settlement and activity measured after 24 hrs.

CC(C)=CCC[C@](C)(O)C1CC=C(C)CC1 (stereo partly drawn) [α-bisabolol]
Repellency Index (garden snail H. aspersa [1]; 1% in aq. Tween 20 (1%)): 90
% Mortality ± SEM (garden snail H. aspersa [1]; in vivo): 0%
% Leaf Damage ± SEM (garden snail H. aspersa [2]): 10 ± 0%

C=C/C(C)=C/C/C=C(\C)CCC=C(C)C [α-farnesene]
Repellency Index (D. reticulatum slugs [3]; 0.7% in ethanol): 60%
Repellency Index (D. reticulatum slugs [3]; 2.7% in ethanol): 97%

C=C1/C=C/C(C(C)C)CC/C(C)=C/CC1 (stereo not shown) [Germacrene D]
Corrected Mortality (D. reticulatum slugs [3]; 0.4% in ethanol): 0%
Repellency Index (D. reticulatum slugs [3]; 0.4% in ethanol): 77%

CC(C)=CCC/C(C)=C/CC/C(C)=C\CO [cis, trans farnesol]
Corrected Mortality (D. reticulatum slugs [3]; 0.95% in ethanol): 0%
Repellency Index (D. reticulatum slugs [3]; 0.95% in ethanol): 77%

Cc1ccc(C(C)C)c(O)c1 [thymol]
mollusc repellent activity [4]: effective mollusc repellents

CC(C)=CCC/C(C)=C1/CC=C(C)CC1 [γ-bisabolene]
Corrected Mortality (D. reticulatum slugs [3]; 0.7% in ethanol): 0%
Repellency Index (D. reticulatum slugs [3]; 0.7% in ethanol): 70%

C=C(C)C1CC=C(C)C(=O)C1 (stereo not shown) [Carvone, carvone]
time to induce death (eggs of D. reticulatum): 2 days
molluscicidal activity [4]: potent molluscicides

CC1=CCC(C(C)(C)O)CC1 (stereo not drawn) [α-terpineol]
mollusc repellent activity [4]: effective mollusc repellents

C=C/C(C)=C/CC=C(C)C [trans-β-Ocimene]
inhibition of settlement ([5]; 10^−5-10^−9M, 28° C., dark): inhibition of settlement in a reverse dose-dependent manner
settlement compared to the control (unpaired t-test) ([5]; lowest concentration (10^−9M)): statistically different from the control
Corrected Mortality (D. reticulatum slugs [3]; 0.1% in ethanol): 0%
Repellency Index (D. reticulatum slugs [3]; 0.1% in ethanol): 5%
Corrected Mortality (D. reticulatum slugs [3]; 0.22% in Aq. Dmso (10%)): 0%
Repellency Index (D. reticulatum slugs [3]; 0.22% in Aq. Dmso (10%)): 2%
Corrected Mortality (D. reticulatum slugs [3]; 0.45% in Aq. Dmso (2.5%)): 20%
Repellency Index (D. reticulatum slugs [3]; 0.45% in Aq. Dmso (2.5%)): 91%
Corrected Mortality (D. reticulatum slugs [3]; 0.45% in Aq. Dmso (10%)): 70%
Repellency Index (D. reticulatum slugs [3]; 0.45% in Aq. Dmso (10%)): 90%
Corrected Mortality (D. reticulatum slugs [3]; 0.45% in Aq. Tween 80 (0.2%)): 20%
Repellency Index (D. reticulatum slugs [3]; 0.45% in Aq. Tween 80 (0.2%)): 91%
Corrected Mortality (D. reticulatum slugs [3]; 0.45% in Aq. Tween 80 (0.5%)): 10%
Repellency Index (D. reticulatum slugs [3]; 0.45% in Aq. Tween 80 (0.5%)): 73%
Corrected Mortality (D. reticulatum slugs [3]; 0.45% in Water): 90%
Repellency Index (D. reticulatum slugs [3]; 0.45% in Water): 100%
Corrected Mortality (D. reticulatum slugs [3]; 0.45% in ethanol, 24 hours): 0%
Repellency Index (D. reticulatum slugs [3]; 0.45% in ethanol, 24 hours): 35%
Corrected Mortality (D. reticulatum slugs [3]; 0.90% in Aq. Dmso (10%)): 75%
Repellency Index (D. reticulatum slugs [3]; 0.90% in Aq. Dmso (10%)): 92%
Corrected Mortality (D. reticulatum slugs [3]; 0.9% in ethanol): 5%
Repellency Index (D. reticulatum slugs [3]; 0.9% in ethanol): 95%
Corrected Mortality (D. reticulatum slugs [3]; 2.7% in Aq. Dmso (10%)): 95%
Repellency Index (D. reticulatum slugs [3]; 2.7% in Aq. Dmso (10%)): 100%
mortalities (D. reticulatum slugs [3]; Examples 2 and 4, aqueous tween 80): Low
slug mortality (D. reticulatum slugs [3]; pure oil, immediately on contact): 100%
amount of lettuce leaf consumed was reduced (D. reticulatum slugs [3]): 73%
% Leaf Damage ± SEM (garden snail H. aspersa [1]; 5% in Water): 79 ± 9 NS %
% Mortality ± SEM (garden snail H. aspersa [1]; 5% in Water): 0%
Repellency Index (garden snail H. aspersa [1]; 5% in Water): 21
% Leaf Damage ± SEM (garden snail H. aspersa [1]; 5% in aq. Synperonic (0.025%)): 2 ± 2 %
% Mortality ± SEM (garden snail H. aspersa [1]; 5% in aq. Synperonic (0.025%)): 17 ± 7 %
Repellency Index (garden snail H. aspersa [1]; 5% in aq. Synperonic (0.025%)): 98
% Leaf Damage ± SEM (garden snail H. aspersa [1]; 5% in aq. Synperonic (5%)): 0 ± 0 %
% Mortality ± SEM (garden snail H. aspersa [1]; 5% in aq. Synperonic (5%)): 0%
Repellency Index (garden snail H. aspersa [1]; 5% in aq. Synperonic (5%)): 100
% Leaf Damage ± SEM (garden snail H. aspersa [1]; 5% in aq. Tween 20 (5%)): 0 ± 0 %
% Mortality ± SEM (garden snail H. aspersa [1]; 5% in aq. Tween 20 (5%)): 0%
Repellency Index (garden snail H. aspersa [1]; 5% in aq. Tween 20 (5%)): 100
% Leaf Damage ± SEM (garden snail H. aspersa [1]; 10% in Water): 0 ± 0 %
% Mortality ± SEM (garden snail H. aspersa [1]; 10% in Water): 5%
Repellency Index (garden snail H. aspersa [1]; 10% in Water): 100
Leaf damage (D. reticulatum; 12 ml spray, single replicates 1-4): 18.69% and 9.33% and 0.00% and 0.99%
Repellency Indices (D. reticulatum): 76.5%
Mean Leaf damage (D. reticulatum; four replicates): 7.25%
Repellency Indices (D. reticulatum; listed as trans-β-ocimene): 77%
mortality (D. reticulatum; peat containers): No mortality
% Leaf Damage (D. reticulatum slugs [6]; Day 1): 0%
% Leaf Damage (D. reticulatum slugs [6]; Day 2): 0%
% Leaf Damage (D. reticulatum slugs [6]; Day 3): 0%
% Leaf Damage (D. reticulatum slugs [6]; Day 4): 0%
% Leaf Damage (D. reticulatum slugs [6]; Day 5): 0%
% Leaf Damage (D. reticulatum slugs [6]; Day 6): 0%
% Leaf Damage (D. reticulatum slugs [6]; Day 7): 0%
% Mortality (D. reticulatum slugs [6]; Day 1): 67%
% Mortality (D. reticulatum slugs [6]; Day 2): 80 ± 12%
% Mortality (D. reticulatum slugs [6]; Day 3): 87 ± 7%
% Mortality (D. reticulatum slugs [6]; Day 4): 87 ± 7%
% Mortality (D. reticulatum slugs [6]; Day 5): 93 ± 7%
% Mortality (D. reticulatum slugs [6]; Day 6): 93 ± 7%
% Mortality (D. reticulatum slugs [6]; Day 7): 93 ± 7%
state of larvae [7]: all floating on the surface but were ‘mutated’

CC(C)[C@@H]1CC[C@@H](C)CC1=O [menthone]
molluscicidal activity [4]: potent molluscicides

CC1CCC(C(C)C)C(O)C1 (stereo not shown) [menthol]
mollusc repellent activity [4]: effective mollusc repellents
molluscicidal activity [4]: potent molluscicides

C=C/C(C)=C\CC=C(C)C [cis-β-Ocimene]
Repellency Index (D. reticulatum slugs [3]; 0.35% in Aq. Tween 80 (0.2%)): 84%
Corrected Mortality (D. reticulatum slugs [3]; in vivo): 15%
mortalities (D. reticulatum slugs [3]; in vivo): Low
amount of lettuce leaf consumed was reduced (D. reticulatum slugs [3]): 84%

C=C1CC/C=C(\C)CC[C@@H]2[C@@H]1CC2(C)C [Carophyllene]
Corrected Mortality (D. reticulatum slugs [3]; 0.96% in ethanol): 15%
Repellency Index (D. reticulatum slugs [3]; 0.96% in ethanol): 40%

CC(C)=CCC/C(C)=C/CC/C(C)=C/CO [trans, trans farnesol]
Repellency Index (D. reticulatum slugs [3]; 0.96% in ethanol): 96%
Corrected Mortality (D. reticulatum slugs [3]; in vivo): 0%

From US20070264363A1, “Molluscicidal and Anti-Barnacle Compounds” (priority 2003, published 2007)
